The values below come from publication PMC11239830, “Synthetic macrolides overcoming MLSBK-resistant pathogens” (Cell Discovery, 2024).

One series concerns S. pyogenes. Put plainly: MIC, broth microdilution. The class given is cell-based, Streptococcus pyogenes. The gist of the method:
(§1)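 Incubation ran for 16–20 h at 37 °C after setup per Clinical and Laboratory Standards Institute microdilution procedure. Growth was then observed to assign the MIC. Assays were replicated at least three times.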
(In general: Broth dilution looks for growth in wells or tubes with falling amounts of substance.)

The subject of the next series is S. aureus. Put plainly: MIC, broth microdilution. The class given is cell-based, Staphylococcus aureus. The conditions noted are these: Staphylococcus aureus, read-out: MIC. A digest of the protocol: as §1
A further series deals with S. pneumoniae. Put plainly: MIC, broth microdilution. Type of series: cell-based, Streptococcus pneumoniae. A digest of the protocol: as §1
The next series deals with H. influenzae. Put plainly: MIC, broth microdilution. Type of series: cell-based, Haemophilus influenzae. The settings on record: Haemophilus influenzae, ATCC49247, H. influenzae ATCC49247, Azi-S; read-out: MIC. A digest of the protocol: as §1
The test system of the next series is human ribosome. Also noted: method as in PMID 32601485. The settings on record: read-out: IC50, inhibition on human ribosome; cited from earlier work.
Series [1] concerns 15B196 S. aureus ribosomes (A2058-methylated). Put plainly: PURE in vitro translation inhibition assay. The class given is biochemical, Staphylococcus aureus. The conditions noted are these: mean ± SD. Here is the method: (§2) To validate the in vitro activity of our compounds, we employed an in vitro reconstituted E. coli Protein synthesis Using a Recombinant Elements (PURE) translation system, substituting E. coli ribosomes with the purified S. aureus ribosomes.
(§3) 5 μL of PURE reaction mix that translates a gene encoding the Nanoluc luciferase was set up in the presence or absence of tested compounds. Protein synthesis was initiated by incubating reactions at 37 °C for 60 min and stopped by placing on ice for 5 min. Luciferase activity was quantified using the Nano-Glo luciferase assay system and read on a GloMax 20/20 luminometer (Promega, USA). For each compound, the in vitro translation inhibition assay was performed in three biological triplicates over a range of concentrations from 0.001 μM to 1000 μM. A compound-free control was used to normalize luminescence measurements. The calculated luminescence percentages were plotted against compound concentrations on a semilog scale using GraphPad Prism.

The next series has as its system WT S. aureus ribosomes. Put plainly: PURE in vitro translation inhibition assay. The class given is biochemical, Staphylococcus aureus. The settings on record: mean ± SD. Here is the method: as §2, §3
A short description of series [2]: CCK-8 assay for cytotoxicity. The settings on record: human, HEK293T cells, HEK293T cell viability. Type of series: cell-based, human. As for the experimental part: HepG2 cells (6 × 10^3) and HEK293T cells (4 × 10^3) were seeded into 96-well plates in 90 μL of DMEM medium containing 10% FBS per well. […] After overnight incubation, the test compound stock solution was diluted with DMEM medium containing 10% FBS to every target concentration, and 10 μL of each was added to each well. Three parallel experiments were set up for each compound. After incubation for 48 h, 10 μL of cell counting kit-8 (CCK-8) reagent was added to each well in sequence according to the manufacturer’s instructions. […] This experiment was independently repeated three times. The data were processed by GraphPad Prism.
A general note: Formazan colour is commonly taken as a measure of viable cells.

In brackets after ≈: the same amount, converted by molar mass. Like-named read-outs stand apart in the source and are kept apart here.

Regarding `CC[C@H]1OC(=O)[C@H](C)[C@@H](OC(=O)NCCCNCCC#Cc2ccc3c(=O)c(C(=O)O)cn(C4CC4)c3c2)[C@H](C)[C@@H](O[C@@H]2O[C@H](C)C[C@H](N(C)C)[C@H]2O)[C@](C)(OC)C[C@@H](C)C(=O)[C@H](C)[C@H]2NC(=O)O[C@@]21C` [98c], the melting point (as a rule, the temperature of the solid-liquid transition) fell in the range of 148.6 to 149.5 °C. In addition, the MIC in the series on S. pyogenes (Streptococcus pyogenes, S. pyogenes 12-206, c-ermTR, read-out: MIC) was found to be 2 µg/mL (≈ 2.01 µM). Moreover, in the series with S. aureus (S. aureus 15B196, c-ermB), the MIC is 256 µg/mL (≈ 257 µM). In the series on S. aureus (S. aureus PU32, i-ermA), the MIC is 4 µg/mL (≈ 4.02 µM). Also, in the series on S. pneumoniae (Streptococcus pneumoniae, ATCC49619, S. pneumoniae ATCC49619, Ery-S, read-out: MIC), the MIC was determined as 0.5 µg/mL (≈ 0.503 µM). In the series with S. pneumoniae (Streptococcus pneumoniae, S. pneumoniae 07P390, c-ermB, read-out: MIC), the MIC came out at 2 µg/mL (≈ 2.01 µM). Besides, the MIC with S. pneumoniae (Streptococcus pneumoniae, S. pneumoniae PU09, mef, read-out: MIC) stood at 0.5 µg/mL (≈ 0.503 µM). In addition, the MIC in the series with H. influenzae is 64 µg/mL (≈ 64.4 µM).

`CC[C@H]1OC(=O)[C@H](C)[C@@H](OC(=O)NCCCCOCCC#Cc2ccc3c(=O)c(C(=O)O)cn(C)c3c2)[C@H](C)[C@@H](O[C@@H]2O[C@H](C)C[C@H](N(C)C)[C@H]2O)[C@](C)(OC)C[C@@H](C)C(=O)[C@H](C)[C@H]2NC(=O)O[C@@]21C` (hydrate or solvate) [96g] showed a melting point of 172.1 to 173.5 °C.

In the case of `COC(=O)c1c(OC)cc2cc3c(c(O)c2c1C)C(=O)[C@]1(OC)C(=O)C=C(OC)[C@@H](O)[C@]1(O)C3=O` [TcmX, tetracenomycin X], the IC50 (commonly the concentration at which inhibition is half-maximal) in the series on human ribosome was 10 µM.

Regarding `CC[C@H]1OC(=O)[C@H](C)[C@@H](OC(=O)NCCCOCCC#Cc2ccc3c(=O)c(C(=O)O)cn(C4CC4)c3c2)[C@H](C)[C@@H](O[C@@H]2O[C@H](C)C[C@H](N(C)C)[C@H]2O)[C@](C)(OC)C[C@@H](C)C(=O)[C@H](C)[C@H]2NC(=O)O[C@@]21C` (hydrate or solvate) [95c], the melting point was in the range of 163.6 to 163.9 °C.

With `CC[C@H]1OC(=O)[C@H](C)[C@@H](OC(=O)NCCCOCCC#Cc2ccc3c(=O)c(C(=O)O)c[nH]c3c2)[C@H](C)[C@@H](O[C@@H]2O[C@H](C)C[C@H](N(C)C)[C@H]2O)[C@](C)(OC)C[C@@H](C)C(=O)[C@H](C)[C@H]2NC(=O)O[C@@]21C` (hydrate or solvate) [95i], the melting point was 163.7 to 164.9 °C.

Turning to `CCC1OC(=O)C(C)C(OC(=O)NCCCOCCC#Cc2ccc3c(=O)c(C(=O)O)cn(C4CC4)c3c2)C(C)C(OC2OC(C)CC(N(C)C)C2O)C(C)(OC)CC(C)C(=NOC)C(C)C2OC(=O)OC12C` (stereo not drawn) (hydrate or solvate) [72c], the melting point was 144.6 to 145.2 °C.

With `CC[C@H]1OC(=O)[C@H](C)[C@@H](O[C@H]2C[C@@](C)(OC)[C@@H](O)[C@H](C)O2)[C@H](C)[C@@H](O[C@@H]2O[C@H](C)C[C@H](N(C)C)[C@H]2O)[C@](C)(O)C[C@@H](C)C(=O)[C@H](C)[C@@H](O)[C@]1(C)O` [erythromycin, reference compound], the MIC with S. pyogenes (S. pyogenes 01-968, Clinical, i-ermB) worked out at 1 µg/mL (≈ 1.36 µM); against S. pyogenes (S. pyogenes 12-207, Clinical, mef) it was 16 µg/mL (≈ 21.8 µM); with S. pyogenes (S. pyogenes 21K003, Clinical, mef) it was 16 µg/mL (≈ 21.8 µM); in the series on S. pneumoniae (S. pneumoniae 21Q352, Clinical, i-MLSB), 64 µg/mL (≈ 87.2 µM); in the series on S. pneumoniae (S. pneumoniae 21Q353, Clinical, i-MLSB), 32 µg/mL (≈ 43.6 µM); against S. pneumoniae (S. pneumoniae 21X435, Clinical), 0.03 µg/mL (≈ 0.0409 µM). This compound gave an MIC against S. pneumoniae (S. pneumoniae ATCC49619) of 0.03 µg/mL (≈ 0.0409 µM). The IC50 in series [1] is above 10 µM; with WT S. aureus ribosomes, 0.18 ± 0.03 µM. Further, the CC50 (as a rule, the concentration giving 50% cytotoxicity) at 48 h in series [2] is above 100 µM.

On to `CC[C@H]1OC(=O)[C@H](C)[C@@H](OC(=O)NCCCCCCC#Cc2ccc3c(=O)c(C(=O)O)c[nH]c3c2)[C@H](C)[C@@H](O[C@@H]2O[C@H](C)C[C@H](N(C)C)[C@H]2O)[C@](C)(OC)C[C@@H](C)C(=O)[C@H](C)[C@H]2NC(=O)O[C@@]21C` (hydrate or solvate) [88i], for which the melting point lay within 162.9 to 166 °C.
